From patent US8575156B2, “Cyclic inhibitors of 11β-hydroxysteroid dehydrogenase 1” (Vitae Pharmaceuticals, Inc., priority 2007, dated 2013)

Molecular target: 11β-HSD1 (Homo sapiens, UniProt P28845)
Assay: biochemical
Details: for IC50: IC50 Range, Biological Test Example 1, microsomes from CHO cells overexpressing human 11β-HSD1; for inhibition at 0.1 µM: read-out: Average % inhibition at 100 nM, Biological Test Example 1, 100 nM

Chain of 11β-HSD1 (P28845 whole entry): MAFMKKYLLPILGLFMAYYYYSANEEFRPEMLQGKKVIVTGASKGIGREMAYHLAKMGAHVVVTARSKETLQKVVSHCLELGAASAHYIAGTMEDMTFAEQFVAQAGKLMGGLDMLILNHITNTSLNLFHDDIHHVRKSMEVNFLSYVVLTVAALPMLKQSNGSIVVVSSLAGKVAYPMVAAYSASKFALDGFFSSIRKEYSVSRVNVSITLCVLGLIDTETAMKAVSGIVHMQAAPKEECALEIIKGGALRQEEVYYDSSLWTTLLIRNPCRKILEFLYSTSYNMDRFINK

| IC50 [nM] | inhibition at 0.1 µM [%] | Structure (SMILES) |
| --- | --- | --- |
| < 100 | 100 | C[C@@H](c1ccc(-c2ccc(CO)cc2)cc1)N1CC[C@](CCCO)(c2ccccc2)OC1=O [EXAMPLE 494, (R)-3-((S)-1-(4′-(hydroxymethyl)biphenyl-4-yl)ethyl)-6-(3-hydroxypropyl)-6-phenyl-1,3-oxazinan-2-one] |
| < 100 | 95.8 | C[C@@H](c1ccc(-c2ccc(CN)cc2)cc1)N1CC[C@](CCCO)(c2ccccc2)OC1=O [EXAMPLE 495, (R)-3-((S)-1-(4′-(aminomethyl)biphenyl-4-yl)ethyl)-6-(3-hydroxypropyl)-6-phenyl-1,3-oxazinan-2-one] |
| < 100 | 97.8 | C[C@@H](c1ccc(Cl)c(F)c1)N1CC[C@](CCCO)(c2ccc(F)cc2)OC1=O [EXAMPLE 498, (R)-3-((S)-1-(4-chloro-3-fluorophenyl)ethyl)-6-(4-fluorophenyl)-6-(3-hydroxypropyl)-1,3-oxazinan-2-one] |
| < 100 | 98.2 | C[C@@H](c1ccc(Br)cc1)N1CC[C@](CC2(O)CC2)(c2ccc(F)cc2)OC1=O [EXAMPLE 500, (S)-3-((S)-1-(4-bromophenyl)ethyl)-6-(4-fluorophenyl)-6-((1-hydroxycyclopropyl)methyl)-1,3-oxazinan-2-one] |
| < 100 | 90.1 | C[C@@H](c1ccc(-c2ccc(F)cc2F)cc1)N1CC[C@](CCC(=O)O)(c2ccccc2)OC1=O [EXAMPLE 503, 3-((R)-3-((S)-1-(2′,4′-difluorobiphenyl-4-yl)ethyl)-2-oxo-6-phenyl-1,3-oxazinan-6-yl)propanoic acid] |
| < 100 | 96.3 | C[C@@H](c1ccc(OCC(F)(F)F)cc1)N1CC[C@](CCC(N)=O)(c2ccc(F)cc2)OC1=O [EXAMPLE 505, 3-((R)-6-(4-fluorophenyl)-2-oxo-3-((S)-1-(4-(2,2,2-trifluoroethoxy)phenyl)ethyl)-1,3-oxazinan-6-yl)propanamide] |
| < 100 | 97.7 | CC(=O)N(C)CCC[C@]1(c2ccccc2)CCN([C@@H](C)c2ccc(Br)cc2)C(=O)O1 [EXAMPLE 506, N-(3-((R)-3-((S)-1-(4-bromophenyl)ethyl)-2-oxo-6-phenyl-1,3-oxazinan-6-yl)propyl)-N-methylacetamide] |
| < 100 | 96.1 | C[C@@H](c1ccc(Br)cc1)N1CC[C@](CCNS(C)(=O)=O)(c2ccccc2)OC1=O [EXAMPLE 507, N-(2-((S)-3-((S)-1-(4-bromophenyl)ethyl)-2-oxo-6-phenyl-1,3-oxazinan-6-yl)ethyl)methanesulfonamide] |
| < 100 | 84.4 | C[C@@H](c1ccc(Br)cc1)N1CC[C@](CCN2CCCS2(=O)=O)(c2ccccc2)OC1=O [EXAMPLE 513, (S)-3-((S)-1-(4-bromophenyl)ethyl)-6-(2-(1-dioxo-isothiazolidin-2-yl)ethyl)-6-phenyl-1,3-oxazinan-2-one] |
| < 100 | 93.1 | C[C@@H](c1ccc(Br)cc1)N1CC[C@](CCCN(C)S(C)(=O)=O)(c2ccccc2)OC1=O [EXAMPLE 514, N-(3-((R)-3-((S)-1-(4-bromophenyl)ethyl)-2-oxo-6-phenyl-1,3-oxazinan-6-yl)propyl)-N-methylmethanesulfonamide] |
| < 100 | 98 | CC(C#N)C[C@]1(c2ccc(F)cc2)CCN([C@@H](C)c2ccc(Br)cc2)C(=O)O1 (stereo partly drawn) [EXAMPLE 520, 3-((R)-3-((S)-1-(4-bromophenyl)ethyl)-6-(4-fluorophenyl)-2-oxo-1,3-oxazinan-6-yl)-2-methylpropanenitrile] |
| < 100 | 97.5 | C[C@@H](c1ccc(Br)cc1)N1CC[C@](CC(C)(C)C(N)=O)(c2ccc(F)cc2)OC1=O [EXAMPLE 522, 3-((R)-3-((S)-1-(4-bromophenyl)ethyl)-6-(4-fluorophenyl)-2-oxo-1,3-oxazinan-6-yl)-2,2-dimethylpropanamide] |
| < 100 | 97.9 | C[C@@H](c1ccc(Br)cc1)N1CC[C@](CCC#N)(c2ccc(F)cc2)OC1=O [EXAMPLE 524, 3-((R)-3-((S)-1-(4-bromophenyl)ethyl)-6-(4-fluorophenyl)-2-oxo-1,3-oxazinan-6-yl)propanenitrile] |
| < 100 | 54.6 | C[C@@H](c1ccc(Br)cc1)N1CC[C@](CCC(=O)O)(c2ccc(F)cc2)OC1=O [EXAMPLE 526, 3-((R)-3-((S)-1-(4-bromophenyl)ethyl)-6-(4-fluorophenyl)-2-oxo-1,3-oxazinan-6-yl)propanoic acid] |
| < 100 | 89.7 | C[C@@H](c1ccc(Br)cc1)N1CC[C@](CC(=O)CO)(c2ccc(F)cc2)OC1=O [EXAMPLE 527, (S)-3-((S)-1-(4-bromophenyl)ethyl)-6-(4-fluorophenyl)-6-(3-hydroxy-2-oxopropyl)-1,3-oxazinan-2-one] |
| < 100 | 98.6 | C[C@@H](c1ccc(Br)cc1)N1CC[C@](CC(C)(C)CO)(c2ccc(F)cc2)OC1=O [EXAMPLE 528, (R)-3-((S)-1-(4-bromophenyl)ethyl)-6-(4-fluorophenyl)-6-(3-hydroxy-2,2-dimethylpropyl)-1,3-oxazinan-2-one] |
| < 100 | 93.7 | C[C@@H](c1ccc(Br)cc1)N1CC[C@](CCN(C)S(C)(=O)=O)(c2ccccc2)OC1=O [EXAMPLE 529, N-(2-((S)-3-((S)-1-(4-bromophenyl)ethyl)-2-oxo-6-phenyl-1,3-oxazinan-6-yl)ethyl)-N-methylmethanesulfonamide] |
| < 100 | 73.3 | Cc1nnc(C[C@]2(c3ccccc3)CCN([C@@H](C)c3ccc(Br)cc3)C(=O)O2)o1 [EXAMPLE 530, (S)-3-((S)-1-(4-bromophenyl)ethyl)-6-((5-methyl-1,3,4-oxadiazol-2-yl)methyl)-6-phenyl-1,3-oxazinan-2-one] |
| < 100 | 73.5 | Cc1nnc(C[C@]2(c3ccccc3)CCN([C@@H](C)c3ccc(Br)cc3)C(=O)O2)s1 [EXAMPLE 531, (S)-3-((S)-1-(4-bromophenyl)ethyl)-6-((5-methyl-1,3,4-thiadiazol-2-yl)methyl)-6-phenyl-1,3-oxazinan-2-one] |
| < 100 | 96.3 | C[C@@H](c1ccc(C(F)(F)F)cc1)N1CC[C@](CCCO)(c2ccccc2)OC1=O [EXAMPLE 532, (R)-6-(3-hydroxypropyl)-6-phenyl-3-((S)-1-(4-(trifluoromethyl)phenyl)ethyl)-1,3-oxazinan-2-one] |
| < 100 | 94.5 | C[C@@H](c1ccc(Cl)c(F)c1)N1CC[C@](CCO)(c2ccc(F)cc2)OC1=O [EXAMPLE 533, (S)-3-((S)-1-(4-chloro-3-fluorophenyl)ethyl)-6-(4-fluorophenyl)-6-(2-hydroxyethyl)-1,3-oxazinan-2-one] |
| < 100 | 98.5 | C[C@@H](c1ccc(Cl)cc1F)N1CC[C@](CCCO)(c2ccc(F)cc2)OC1=O [EXAMPLE 534, (R)-3-((S)-1-(4-chloro-2-fluorophenyl)ethyl)-6-(4-fluorophenyl)-6-(3-hydroxypropyl)-1,3-oxazinan-2-one] |
